The results in this text go back to US11339161B2, “Triazolo pyridines as modulators of gamma-secretase” (Boehringer Ingelheim International GmbH, priority 2017, dated 2022).

The target in one assay is FGFR2 (Homo sapiens, UniProt P21802). Description: Z'-LYTE SelectScreen biochemical kinase assay FGFR2. An excerpt:
(§1) Thermo Fisher Scientific SelectScreen™ Biochemical Kinase Profiling Service Z′-LYTE™ Screening Protocol and Assay Conditions Assay Theory
(§2) The […] biochemical assay employs a fluorescence-based, coupled-enzyme format and is based on the differential sensitivity of phosphorylated and non-phosphorylated peptides to proteolytic cleavage. The peptide substrate is labeled with two fluorophores—one at each end—that make up a FRET pair. In the primary reaction, the kinase transfers the gamma-phosphate of ATP to a single tyrosine, serine or threonine residue in a synthetic FRET-peptide. In the secondary reaction, a site-specific protease recognizes and cleaves non-phosphorylated FRET-peptides. Phosphorylation of FRET-peptides suppresses cleavage by the Development Reagent. Cleavage disrupts FRET between the donor (i.e., coumarin) and acceptor (i.e., fluorescein) fluorophores on the FRET-peptide, whereas uncleaved, phosphorylated FRET-peptides maintain FRET. A ratiometric method, which calculates the ratio (Emission Ratio=Coumarin emission (445 nm)/Fluorescein emission (520 nm)) of donor emission to acceptor emission after excitation of the donor fluorophore at 400 nm, is used to quantitate reaction progress, as shown in the equation below. A significant benefit of this ratiometric method for quantitating reaction progress is the elimination of well-to-well variations in FRET-peptide concentration and signal intensities. As a result, the assay yields very high Z′-factor values (>0.7) at a low percent phosphorylation. Both cleaved and uncleaved FRET-peptides contribute to the fluorescence signals and therefore to the Emission Ratio. The extent of phosphorylation of the FRET-peptide can be calculated from the Emission Ratio. The Emission Ratio will remain low if the FRET-peptide is phosphorylated (i.e., no kinase inhibition) and will be high if the FRET-peptide is non-phosphorylated (i.e., kinase inhibition).
(§3) The Test Compounds are screened in 1% DMSO (final) in the well. For 10 point titrations, 3-fold serial dilutions are conducted from the starting concentration of the customer's choosing.
(§4) All Peptide/Kinase Mixtures are diluted to a 2× working concentration in the appropriate Kinase Buffer (see section Kinase Specific Assay Conditions for a complete description).
(§5) All ATP Solutions are diluted to a 4× working concentration in Kinase Buffer (50 mM HEPES pH 7.5, 0.01% BRIJ-35, 10 mM MgCl2, 1 mM EGTA). ATP Km apparent is previously determined using a Z″-LYTE assay.
(§6) The Development Reagent is diluted in Development Buffer (see section Kinase-Specific Assay Conditions—Direct and Cascade for a complete description).
(§7) Bar-coded Corning, low volume NBS, black 384-well plate (Corning Cat. #4514) • 1. 100 nL—100× Test Compound in 100% DMSO • 2. 2.4 μL—Kinase buffer • 3. 5 μL—2× Peptide/Kinase Mixture • 4. 2.5 μL—4×ATP Solution • 5. 30—second plate shake • 6. 60—minute Kinase Reaction incubation at room temperature • 7. 5 μL—Development Reagent Solution • 8. 30—second plate shake • 9. 60—minute Development Reaction incubation at room temperature • 10. Read on fluorescence plate reader and analyze the data Z′-LYTE Assay Controls
(§8) SelectScreen Kinase Profiling Service uses XLfit from IDBS. The dose response curve is curve fit to model number 205 (sigmoidal dose-response model).
The 2×FGFR2/Tyr 04 mixture is prepared in 50 mM HEPES pH 7.5, 0.01% BRIJ-35, 10 mM MgCl2, 4 mM MnCl2, 1 mM EGTA, 2 mM DTT. The final 10 μL Kinase Reaction consists of 0.19-1.99 ng FGFR2 and 2 μM Tyr 04 in 50 mM HEPES pH 7.5, 0.01% BRIJ-35, 10 mM MgCl2, 2 mM MnCl2, 1 mM EGTA, 1 mM DTT. After the 1 hour Kinase Reaction incubation, 5 μL of a 1:64 dilution of Development Reagent B is added.

The subject of a further assay is kinases. Description: Z'-LYTE SelectScreen kinase panel: number of kinases with <40% inhibition out of 15 tested. Type of assay: biochemical. The note with it: 10 μmolar (10000 nM) compound; [ATP] Km app; 15 kinases tested.
In the next assay the target is T1, AURKA (Aurora A) (Homo sapiens, UniProt O14965).
T1 sequence (O14965 1-403): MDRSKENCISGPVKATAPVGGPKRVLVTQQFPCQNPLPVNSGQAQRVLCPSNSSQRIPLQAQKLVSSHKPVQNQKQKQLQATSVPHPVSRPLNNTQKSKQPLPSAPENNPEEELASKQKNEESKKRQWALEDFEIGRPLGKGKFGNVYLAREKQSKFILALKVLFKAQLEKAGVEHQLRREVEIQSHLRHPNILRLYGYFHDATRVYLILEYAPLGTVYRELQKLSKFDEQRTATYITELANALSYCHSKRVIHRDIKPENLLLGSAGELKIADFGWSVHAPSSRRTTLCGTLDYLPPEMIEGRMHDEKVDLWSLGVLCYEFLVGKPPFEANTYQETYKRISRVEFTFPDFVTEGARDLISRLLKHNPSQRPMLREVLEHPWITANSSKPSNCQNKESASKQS
The assay can be described thus: Z'-LYTE SelectScreen biochemical kinase assay AURKA (Aurora A).
Description: as §1, §2, §3, §4, §5, §6, §7, §8
The 2×AURKA (Aurora A)/Ser/Thr 01 mixture is prepared in 50 mM HEPES pH 7.5, 0.01% BRIJ-35, 10 mM MgCl2, 1 mM EGTA. The final 10 μL Kinase Reaction consists of 0.91-8.56 ng AURKA (Aurora A) and 2 μM Ser/Thr 01 in 50 mM HEPES pH 7.5, 0.01% BRIJ-35, 10 mM MgCl2, 1 mM EGTA. After the 1 hour Kinase Reaction incubation, 5 μL of a 1:4096 dilution of Development Reagent A is added.

In the next assay the target is ABL1 (Homo sapiens, UniProt P00519). Description: Z'-LYTE SelectScreen biochemical kinase assay ABL1.
Description: as §1, §2, §3, §4, §5, §6, §7, §8
The 2×ABL1/Tyr 02 mixture is prepared in 50 mM HEPES pH 7.5, 0.01% BRIJ-35, 10 mM MgCl2, 1 mM EGTA. The final 10 μL Kinase Reaction consists of 0.29-1.26 ng ABL1 and 2 μM Tyr 02 in 50 mM HEPES pH 7.5, 0.01% BRIJ-35, 10 mM MgCl2, 1 mM EGTA. After the 1 hour Kinase Reaction incubation, 5 μL of a 1:128 dilution of Development Reagent A is added.

The mark [1] stands for this setting: 10 μmolar compound concentration, ATP at Km app, read-out: FGFR2 inhibition.
[2] abbreviates: read-out: % Inhibition mean FGFR2.
The mark [3] stands for this setting: 10 μmolar compound concentration, ATP at Km app, read-out: AURKA (Aurora A) inhibition.
Setting [4] is: read-out: % Inhibition mean AURKA (Aurora A).
Setting [5] is: 10 μmolar compound concentration, ATP at Km app, read-out: ABL1 inhibition.
Where [6] appears, read: read-out: % Inhibition mean ABL1.

The inhibition is the change of the read-out against control, counted positive when it falls.

Like-named read-outs stand apart in the source and are kept apart here.

Chain of FGFR2 (P21802 22-821): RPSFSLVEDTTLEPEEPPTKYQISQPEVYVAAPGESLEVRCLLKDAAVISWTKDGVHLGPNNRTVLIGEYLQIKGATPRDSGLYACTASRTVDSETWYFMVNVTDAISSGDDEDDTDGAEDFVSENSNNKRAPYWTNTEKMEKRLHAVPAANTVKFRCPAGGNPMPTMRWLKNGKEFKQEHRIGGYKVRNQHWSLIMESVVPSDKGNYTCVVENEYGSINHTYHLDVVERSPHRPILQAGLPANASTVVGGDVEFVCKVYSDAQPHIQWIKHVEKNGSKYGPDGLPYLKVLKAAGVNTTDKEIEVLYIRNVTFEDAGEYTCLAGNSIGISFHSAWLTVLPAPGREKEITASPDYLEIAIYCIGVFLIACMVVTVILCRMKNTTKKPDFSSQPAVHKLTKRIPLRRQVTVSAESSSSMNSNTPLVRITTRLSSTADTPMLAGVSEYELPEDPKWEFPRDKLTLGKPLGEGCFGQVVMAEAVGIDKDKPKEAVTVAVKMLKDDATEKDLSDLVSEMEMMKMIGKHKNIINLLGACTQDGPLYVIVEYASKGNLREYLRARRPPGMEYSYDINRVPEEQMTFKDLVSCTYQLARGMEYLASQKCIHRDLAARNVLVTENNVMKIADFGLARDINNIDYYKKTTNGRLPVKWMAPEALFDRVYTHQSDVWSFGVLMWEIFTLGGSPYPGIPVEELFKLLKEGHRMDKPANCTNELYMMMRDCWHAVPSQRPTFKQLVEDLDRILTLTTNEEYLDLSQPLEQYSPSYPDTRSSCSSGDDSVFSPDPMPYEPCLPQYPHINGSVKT
Chain of ABL1 (P00519 whole entry): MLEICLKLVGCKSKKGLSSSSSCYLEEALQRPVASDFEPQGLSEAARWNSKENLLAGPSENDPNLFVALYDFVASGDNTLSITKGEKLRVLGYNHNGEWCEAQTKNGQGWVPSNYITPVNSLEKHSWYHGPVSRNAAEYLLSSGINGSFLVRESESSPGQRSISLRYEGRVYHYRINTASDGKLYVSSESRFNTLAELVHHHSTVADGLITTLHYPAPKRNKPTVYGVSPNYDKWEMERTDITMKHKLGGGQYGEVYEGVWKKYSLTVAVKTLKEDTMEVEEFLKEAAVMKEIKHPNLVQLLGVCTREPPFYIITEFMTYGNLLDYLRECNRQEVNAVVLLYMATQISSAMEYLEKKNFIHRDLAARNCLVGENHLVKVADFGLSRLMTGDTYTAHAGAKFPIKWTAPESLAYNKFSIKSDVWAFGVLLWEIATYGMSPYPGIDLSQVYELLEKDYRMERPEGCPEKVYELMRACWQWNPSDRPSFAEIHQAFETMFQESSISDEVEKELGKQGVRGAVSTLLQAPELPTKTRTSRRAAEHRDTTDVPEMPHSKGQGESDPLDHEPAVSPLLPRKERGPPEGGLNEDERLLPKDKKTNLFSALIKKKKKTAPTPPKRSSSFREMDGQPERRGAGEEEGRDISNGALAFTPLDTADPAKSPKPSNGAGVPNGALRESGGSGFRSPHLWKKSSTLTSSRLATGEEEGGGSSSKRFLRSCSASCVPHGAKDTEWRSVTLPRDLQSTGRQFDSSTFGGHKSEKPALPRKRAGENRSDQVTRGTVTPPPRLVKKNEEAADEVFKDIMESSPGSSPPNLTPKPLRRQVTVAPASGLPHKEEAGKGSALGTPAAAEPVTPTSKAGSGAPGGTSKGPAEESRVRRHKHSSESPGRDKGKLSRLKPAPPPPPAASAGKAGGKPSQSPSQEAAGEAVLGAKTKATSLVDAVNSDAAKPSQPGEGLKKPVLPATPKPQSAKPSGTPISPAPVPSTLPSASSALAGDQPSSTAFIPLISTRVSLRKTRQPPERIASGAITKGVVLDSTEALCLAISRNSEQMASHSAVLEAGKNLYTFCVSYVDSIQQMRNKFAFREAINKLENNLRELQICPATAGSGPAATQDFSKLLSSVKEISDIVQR

In the case of `Cc1cc(F)ccc1-c1cccn2nc(NC3CCc4c(cnn4CC(C)C)C3)nc12` (stereo not shown) [Example 45, [8-(4-fluoro-2-methyl-phenyl)-[1,2,4]triazolo[1,5-a]pyridine-2-yl]-(1-isobutyl-4,5,6,7-tetrahydro-1H-indazol-5-yl)-amine], the inhibition at 10 µM on FGFR2 (setting [1]) was less than 40%; on FGFR2 (setting [2]) it was 16%; on AURKA (Aurora A) (setting [3]) it was less than 40%; at AURKA (Aurora A) (setting [4]), -13%; on ABL1 (setting [5]), less than 40%; at ABL1 (setting [6]), 24%. Besides, in the assay on kinases, the “No. of kinases with <40% inhibition” value was 14/15.
With `Cc1cc(F)ccc1-c1cccn2nc(Nc3ccc4c(cnn4C)c3)nc12` [Example 9, [8-(4-fluoro-2-methyl-phenyl)-[1,2,4]triazolo[1,5-a]pyridine-2-yl]-(1-methyl-1H-indazol-5-yl)-amine], the inhibition at 10 µM on FGFR2 (setting [1]) is 40 to 80%; at FGFR2 (setting [2]), 46%; at AURKA (Aurora A) (setting [3]), 40 to 80%; on AURKA (Aurora A) (setting [4]), 57%; at ABL1 (setting [5]) it was 40 to 80%; at ABL1 (setting [6]) it was 63%. Besides, the “No. of kinases with <40% inhibition” value in the assay on kinases is 7/15.
For `CCn1ncc2c1CCC(Nc1nc3c(-c4ccccc4C)cccn3n1)C2` (stereo not shown) [Example 56, (1-Ethyl-4,5,6,7-tetrahydro-1H-indazol-5-yl)-[8-(2-methyl-phenyl)-[1,2,4]triazolo[1,5-a]pyridine-2-yl]-amine], the inhibition at 10 µM on FGFR2 (setting [1]) was less than 40%; on FGFR2 (setting [2]) it was 19%; on AURKA (Aurora A) (setting [3]), less than 40%; at AURKA (Aurora A) (setting [4]), 27%; on ABL1 (setting [5]), less than 40%; at ABL1 (setting [6]), 20%. The “No. of kinases with <40% inhibition” value in the assay with kinases is recorded as 12/15.
Take `CCn1ncc2c1CC[C@@H](Nc1nc3c(-c4ccc(F)cc4C)cccn3n1)C2` [Example R-42, (R)-(1-Ethyl-4,5,6,7-tetrahydro-1H-indazol-5-yl)-[8-(4-fluoro-2-methyl-phenyl)-[1,2,4]triazolo[1,5-a]pyridine-2-yl]-amine]: the inhibition at 10 µM is less than 40% on FGFR2 (setting [1]); 30% at FGFR2 (setting [2]); less than 40% at AURKA (Aurora A) (setting [3]); 3% at AURKA (Aurora A) (setting [4]); less than 40% at ABL1 (setting [5]); 14% at ABL1 (setting [6]). Further, the “No. of kinases with <40% inhibition” value with kinases is recorded as 14/15.
`Cc1cc(F)ccc1-c1cccn2nc(NC3CCc4c(cnn4C)C3)nc12` (stereo not shown) [Example 10, [8-(4-fluoro-2-methyl-phenyl)-[1,2,4]triazolo[1,5-a]pyridine-2-yl]-(1-methyl-4,5,6,7-tetrahydro-1H-indazol-5-yl)-amine]: the inhibition at 10 µM on FGFR2 (setting [1]) was less than 40%; at FGFR2 (setting [2]) it was 14%; at AURKA (Aurora A) (setting [3]), less than 40%; at AURKA (Aurora A) (setting [4]), 4%; at ABL1 (setting [5]), less than 40%; on ABL1 (setting [6]), 1%. Besides, the “No. of kinases with <40% inhibition” value with kinases is on record as 13/15.
As to `Fc1cccc(-c2cccn3nc(Nc4ccc5[nH]cnc5c4)nc23)c1` [Cpd. 293 in WO09155551, reference compound], the inhibition at 10 µM on FGFR2 (setting [1]) was greater than 80%; at FGFR2 (read-out: % Inhibition mean) it was 90%; on AURKA (Aurora A) (setting [3]), greater than 80%; on AURKA (Aurora A) (read-out: % Inhibition mean), 89%; on ABL1 (setting [5]) it was greater than 80%; at ABL1 (read-out: % Inhibition mean), 97%.
On to `CCn1ncc2c1CCC(Nc1nc3c(-c4ccccc4)cccn3n1)C2` (stereo not shown) [Example 57, (1-Ethyl-4,5,6,7-tetrahydro-1H-indazol-5-yl)-(8-phenyl-[1,2,4]triazolo[1,5-a]pyridine-2-yl)-amine], for which the inhibition at 10 µM on FGFR2 (setting [1]) was less than 40%; at FGFR2 (setting [2]), 22%; on AURKA (Aurora A) (setting [3]), less than 40%; on AURKA (Aurora A) (setting [4]), 7%; on ABL1 (setting [5]), less than 40%; on ABL1 (setting [6]), 11%. The “No. of kinases with <40% inhibition” value with kinases is 12/15.
On to `CCCCCn1ncc2c1CCC(Nc1nc3c(-c4ccc(F)cc4C)cccn3n1)C2` (stereo not shown) [Example 47, [8-(4-fluoro-2-methyl-phenyl)-[1,2,4]triazolo[1,5-a]pyridine-2-yl]-(1-pentyl-4,5,6,7-tetrahydro-1H-indazol-5-yl)-amine], for which the inhibition at 10 µM on FGFR2 (setting [1]) was less than 40%; on FGFR2 (setting [2]) it was 21%; at AURKA (Aurora A) (setting [3]), less than 40%; on AURKA (Aurora A) (setting [4]), 10%; on ABL1 (setting [5]), less than 40%; at ABL1 (setting [6]) it was 3%. For the same compound, the “No. of kinases with <40% inhibition” value with kinases was 15/15.
As for `CC1(C)NC(=O)c2ccc(Nc3nc4c(-c5cccc(F)c5)cccn4n3)cc21` [Cpd. 302 in WO09155551, reference compound], the inhibition at 10 µM was greater than 80% at FGFR2 (setting [1]); 98% on FGFR2 (read-out: % Inhibition mean); greater than 80% on AURKA (Aurora A) (setting [3]); 98% at AURKA (Aurora A) (read-out: % Inhibition mean); greater than 80% at ABL1 (setting [5]); 104% at ABL1 (read-out: % Inhibition mean).
Regarding `CC1(C)C(=O)Nc2ccc(Nc3nc4c(-c5cccc(F)c5)cccn4n3)cc21` [Cpd. 263 in WO09155551, reference compound], the inhibition at 10 µM on FGFR2 (setting [1]) was greater than 80%; on FGFR2 (read-out: % Inhibition mean) it was 102%; on AURKA (Aurora A) (setting [3]), greater than 80%; on AURKA (Aurora A) (read-out: % Inhibition mean) it was 99%; at ABL1 (setting [5]), greater than 80%; at ABL1 (read-out: % Inhibition mean) it was 99%.
